Measurements reported in patent US20260226493A1, “HERBICIDE RESISTANT PLANTS” (SYNGENTA CROP PROTECTION AG, priority 2023, published 2026).

Legend:
[1] = tested on: D4539 (Escherichia coli MTP BioA) containing tobacco plants; experiment: Visual herbicide damage score on transgenic tobacco D4539 (pBin TMV MTP EcBioA); assay type: in vivo; conditions: 600 gai/ha
From the text: (§1) In order to determine if the overexpressed gene detailed in Example 3 confers resistance to BIO3-BIO1 inhibiting compounds when expressed in plants, GM tobacco lines were produced and tested with BIO3-BIO1 inhibiting compounds. Transgenic tobacco plants expressing the Escherichia coli BioA gene with (SEQ ID NO:203) and without a mitochondrial signal peptide (SEQ ID NO: 202).
(§2) Populations of transgenic tobacco comprising 20-30 transgenic events per plant transformation constructs were generated as described in Example 1. These lines were clonally propagated and 1 clone per event was sprayed with 600 g ai/ha compound L or A+0.2% Genapol X080 with a spray volume of 200 L/Ha (“g ai/ha” refers to grams of active compound per hectare).
(§3) […] A score of 0 indicates no visible damage or stunting whereas a score of 100 indicates a complete death of the plant. 20 transgenic events (i.e. individual transgenic plants) from each GM tobacco line were transplanted to soil 1 week prior to spraying with BIO3-BIO1 inhibiting compounds. WT tobacco was included as a control.

[2] = tested on: D4555 (Escherichia coli BioA) containing tobacco plants; experiment: Visual herbicide damage score on transgenic tobacco D4555 (pCMP MTP EcBioA); assay type: in vivo; conditions: 600 gai/ha, replicate clones A, B, C of events 8480, 8526
From the text: as §1, §2, §3
• D4555 (Escherichia coli BioA) containing tobacco plants; 04602 (Pantoea ananatis BioA) containing tobacco plants; 04603 (Stenotrophomonas maltophilia BioA) containing tobacco plants; 04609 (Chroococcidiopsis sp. CCMEE 29 BioA) containing tobacco plants; 04611 (Bacillus subtilis BioA) containing tobacco plants; 04606 (Streptomyces viridochromogenes BioA) containing tobacco plants; 04607 (Pedobacter hartonius BioA) containing tobacco plants; 04608 (Chitinophaga filiformis BioA) containing tobacco plants; and 04610 (Tenacibaculum adriaticum BioA) containing tobacco plants, are shown in the “TABLES” section below in Tables 16 to 24 respectively.

CCOC(=O)c1nn(-c2ccc3c(c2)OC(F)(F)C(F)(F)O3)c2cccc(C(C)=O)c2c1=O [Compound A, ethyl 5-acetyl-4-oxo-1-(2,2,3,3-tetrafluoro-1,4-benzodioxin-6-yl)cinnoline-3-carboxylate]
percentage of damage (herbicide damage score) ([1]; D4539 event 8385, 7 DAT): 5% | percentage of damage (herbicide damage score) ([1]; D4539 event 8385, 14 DAT): 0% | percentage of damage (herbicide damage score) ([1]; D4539 event 8385, 21 DAT): 0% | percentage of damage (herbicide damage score) ([1]; D4539 event 8386, 7 DAT): 3% | percentage of damage (herbicide damage score) ([1]; D4539 event 8386, 14 DAT): 0% | percentage of damage (herbicide damage score) ([1]; D4539 event 8386, 21 DAT): 0% | percentage of damage (herbicide damage score) ([1]; D4539 event 8399, 7 DAT): 2% | percentage of damage (herbicide damage score) ([1]; D4539 event 8399, 14 DAT): 0% | percentage of damage (herbicide damage score) ([1]; D4539 event 8399, 21 DAT): 0% | percentage of damage (herbicide damage score) ([1]; D4539 event 8402, 7 DAT): 2% | percentage of damage (herbicide damage score) ([1]; D4539 event 8402, 14 DAT): 0% | percentage of damage (herbicide damage score) ([1]; D4539 event 8402, 21 DAT): 0% | percentage of damage (herbicide damage score) ([1]; D4539 event 8414, 7 DAT): 7% | percentage of damage (herbicide damage score) ([1]; D4539 event 8414, 14 DAT): 30% | percentage of damage (herbicide damage score) ([1]; D4539 event 8414, 21 DAT): 35% | percentage of damage (herbicide damage score) ([1]; D4539 event 8415, 7 DAT): 7% | percentage of damage (herbicide damage score) ([1]; D4539 event 8415, 14 DAT): 0% | percentage of damage (herbicide damage score) ([1]; D4539 event 8415, 21 DAT): 0% | percentage of damage (herbicide damage score) ([1]; D4539 event 8417, 7 DAT): 2% | percentage of damage (herbicide damage score) ([1]; D4539 event 8417, 14 DAT): 5% | percentage of damage (herbicide damage score) ([1]; D4539 event 8417, 21 DAT): 10% | percentage of damage (herbicide damage score) ([1]; D4539 event 8418, 7 DAT): 4% | percentage of damage (herbicide damage score) ([1]; D4539 event 8418, 14 DAT): 10% | percentage of damage (herbicide damage score) ([1]; D4539 event 8418, 21 DAT): 20% | percentage of damage (herbicide damage score) ([1]; D4539 event 8423, 7 DAT): 2% | percentage of damage (herbicide damage score) ([1]; D4539 event 8423, 14 DAT): 20% | percentage of damage (herbicide damage score) ([1]; D4539 event 8423, 21 DAT): 30% | percentage of damage (herbicide damage score) ([1]; D4539 event 8424, 7 DAT): 55% | percentage of damage (herbicide damage score) ([1]; D4539 event 8424, 14 DAT): 80% | percentage of damage (herbicide damage score) ([1]; D4539 event 8424, 21 DAT): 85% | percentage of damage (herbicide damage score) ([1]; D4539 event 8426, 7 DAT): 2% | percentage of damage (herbicide damage score) ([1]; D4539 event 8426, 14 DAT): 0% | percentage of damage (herbicide damage score) ([1]; D4539 event 8426, 21 DAT): 0% | percentage of damage (herbicide damage score) ([1]; D4539 event 8433, 7 DAT): 4% | percentage of damage (herbicide damage score) ([1]; D4539 event 8433, 14 DAT): 0% | percentage of damage (herbicide damage score) ([1]; D4539 event 8433, 21 DAT): 0% | percentage of damage (herbicide damage score) ([1]; D4539 event 8434, 7 DAT): 4% | percentage of damage (herbicide damage score) ([1]; D4539 event 8434, 14 DAT): 5% | percentage of damage (herbicide damage score) ([1]; D4539 event 8434, 21 DAT): 15% | percentage of damage (herbicide damage score) ([1]; D4539 event 8438, 7 DAT): 10% | percentage of damage (herbicide damage score) ([1]; D4539 event 8438, 14 DAT): 75% | percentage of damage (herbicide damage score) ([1]; D4539 event 8438, 21 DAT): 65% | percentage of damage (herbicide damage score) ([1]; D4539 event 8439, 7 DAT): 2% | percentage of damage (herbicide damage score) ([1]; D4539 event 8439, 14 DAT): 10% | percentage of damage (herbicide damage score) ([1]; D4539 event 8439, 21 DAT): 0% | percentage of damage (herbicide damage score) ([1]; D4539 event 8447, 7 DAT): 2% | percentage of damage (herbicide damage score) ([1]; D4539 event 8447, 14 DAT): 0% | percentage of damage (herbicide damage score) ([1]; D4539 event 8447, 21 DAT): 0% | percentage of damage (herbicide damage score) ([1]; D4539 event 8448, 7 DAT): 2% | percentage of damage (herbicide damage score) ([1]; D4539 event 8448, 14 DAT): 0% | percentage of damage (herbicide damage score) ([1]; D4539 event 8448, 21 DAT): 0% | percentage of damage (herbicide damage score) ([1]; D4539 event 8460, 7 DAT): 3% | percentage of damage (herbicide damage score) ([1]; D4539 event 8460, 14 DAT): 0% | percentage of damage (herbicide damage score) ([1]; D4539 event 8460, 21 DAT): 0% | percentage of damage (herbicide damage score) ([1]; D4539 event 8461, 7 DAT): 15% | percentage of damage (herbicide damage score) ([1]; D4539 event 8461, 14 DAT): 80% | percentage of damage (herbicide damage score) ([1]; D4539 event 8461, 21 DAT): 85% | percentage of damage (herbicide damage score) ([1]; D4539 event 8462, 7 DAT): 2% | percentage of damage (herbicide damage score) ([1]; D4539 event 8462, 14 DAT): 0% | percentage of damage (herbicide damage score) ([1]; D4539 event 8462, 21 DAT): 0% | percentage of damage ([2]; 7 DAT): 0% | percentage of damage ([2]; 14 DAT): 0% | percentage of damage ([2]; 21 DAT): 0%

CCn1c(Cn2ccc(C(F)(F)F)n2)cc(=O)c(C(=O)O)c1-c1ccc(Cl)c(Cl)c1 [Compound L, 2-(3,4-dichlorophenyl)-1-ethyl-4-oxo-6-[[3-(trifluoromethyl)pyrazol-1-yl]methyl]pyridine-3-carboxylic acid]
percentage of damage (herbicide damage score) ([1]; D4539 event 8385, 7 DAT): 10% | percentage of damage (herbicide damage score) ([1]; D4539 event 8385, 14 DAT): 0% | percentage of damage (herbicide damage score) ([1]; D4539 event 8385, 21 DAT): 0% | percentage of damage (herbicide damage score) ([1]; D4539 event 8386, 7 DAT): 7% | percentage of damage (herbicide damage score) ([1]; D4539 event 8386, 14 DAT): 0% | percentage of damage (herbicide damage score) ([1]; D4539 event 8386, 21 DAT): 0% | percentage of damage (herbicide damage score) ([1]; D4539 event 8399, 7 DAT): 2% | percentage of damage (herbicide damage score) ([1]; D4539 event 8399, 14 DAT): 0% | percentage of damage (herbicide damage score) ([1]; D4539 event 8399, 21 DAT): 0% | percentage of damage (herbicide damage score) ([1]; D4539 event 8402, 7 DAT): 3% | percentage of damage (herbicide damage score) ([1]; D4539 event 8402, 14 DAT): 0% | percentage of damage (herbicide damage score) ([1]; D4539 event 8402, 21 DAT): 0% | percentage of damage (herbicide damage score) ([1]; D4539 event 8414, 7 DAT): 2% | percentage of damage (herbicide damage score) ([1]; D4539 event 8414, 14 DAT): 0% | percentage of damage (herbicide damage score) ([1]; D4539 event 8414, 21 DAT): 0% | percentage of damage (herbicide damage score) ([1]; D4539 event 8415, 7 DAT): 7% | percentage of damage (herbicide damage score) ([1]; D4539 event 8415, 14 DAT): 0% | percentage of damage (herbicide damage score) ([1]; D4539 event 8415, 21 DAT): 0% | percentage of damage (herbicide damage score) ([1]; D4539 event 8417, 7 DAT): 2% | percentage of damage (herbicide damage score) ([1]; D4539 event 8417, 14 DAT): 0% | percentage of damage (herbicide damage score) ([1]; D4539 event 8417, 21 DAT): 20% | percentage of damage (herbicide damage score) ([1]; D4539 event 8418, 7 DAT): 10% | percentage of damage (herbicide damage score) ([1]; D4539 event 8418, 14 DAT): 25% | percentage of damage (herbicide damage score) ([1]; D4539 event 8418, 21 DAT): 60% | percentage of damage (herbicide damage score) ([1]; D4539 event 8423, 7 DAT): 2% | percentage of damage (herbicide damage score) ([1]; D4539 event 8423, 14 DAT): 0% | percentage of damage (herbicide damage score) ([1]; D4539 event 8423, 21 DAT): 0% | percentage of damage (herbicide damage score) ([1]; D4539 event 8424, 7 DAT): 65% | percentage of damage (herbicide damage score) ([1]; D4539 event 8424, 14 DAT): 85% | percentage of damage (herbicide damage score) ([1]; D4539 event 8424, 21 DAT): 90% | percentage of damage (herbicide damage score) ([1]; D4539 event 8426, 7 DAT): 2% | percentage of damage (herbicide damage score) ([1]; D4539 event 8426, 14 DAT): 0% | percentage of damage (herbicide damage score) ([1]; D4539 event 8426, 21 DAT): 0% | percentage of damage (herbicide damage score) ([1]; D4539 event 8433, 7 DAT): 5% | percentage of damage (herbicide damage score) ([1]; D4539 event 8433, 14 DAT): 0% | percentage of damage (herbicide damage score) ([1]; D4539 event 8433, 21 DAT): 0% | percentage of damage (herbicide damage score) ([1]; D4539 event 8434, 7 DAT): 2% | percentage of damage (herbicide damage score) ([1]; D4539 event 8434, 14 DAT): 0% | percentage of damage (herbicide damage score) ([1]; D4539 event 8434, 21 DAT): 35% | percentage of damage (herbicide damage score) ([1]; D4539 event 8438, 7 DAT): 15% | percentage of damage (herbicide damage score) ([1]; D4539 event 8438, 14 DAT): 85% | percentage of damage (herbicide damage score) ([1]; D4539 event 8438, 21 DAT): 95% | percentage of damage (herbicide damage score) ([1]; D4539 event 8439, 7 DAT): 2% | percentage of damage (herbicide damage score) ([1]; D4539 event 8439, 14 DAT): 0% | percentage of damage (herbicide damage score) ([1]; D4539 event 8439, 21 DAT): 0% | percentage of damage (herbicide damage score) ([1]; D4539 event 8447, 7 DAT): 2% | percentage of damage (herbicide damage score) ([1]; D4539 event 8447, 14 DAT): 0% | percentage of damage (herbicide damage score) ([1]; D4539 event 8447, 21 DAT): 0% | percentage of damage (herbicide damage score) ([1]; D4539 event 8448, 7 DAT): 2% | percentage of damage (herbicide damage score) ([1]; D4539 event 8448, 14 DAT): 0% | percentage of damage (herbicide damage score) ([1]; D4539 event 8448, 21 DAT): 0% | percentage of damage (herbicide damage score) ([1]; D4539 event 8460, 7 DAT): 2% | percentage of damage (herbicide damage score) ([1]; D4539 event 8460, 14 DAT): 0% | percentage of damage (herbicide damage score) ([1]; D4539 event 8460, 21 DAT): 0% | percentage of damage (herbicide damage score) ([1]; D4539 event 8461, 7 DAT): 17% | percentage of damage (herbicide damage score) ([1]; D4539 event 8461, 14 DAT): 75% | percentage of damage (herbicide damage score) ([1]; D4539 event 8461, 21 DAT): 90% | percentage of damage (herbicide damage score) ([1]; D4539 event 8462, 7 DAT): 2% | percentage of damage (herbicide damage score) ([1]; D4539 event 8462, 14 DAT): 0% | percentage of damage (herbicide damage score) ([1]; D4539 event 8462, 21 DAT): 3% | percentage of damage ([2]; 7 DAT): 0% | percentage of damage ([2]; 14 DAT): 0% | percentage of damage ([2]; 21 DAT): 0%
